Data taken from patent US20250108038A1 (priority 2023, published 2025).
Several values for one entry are separate records, joined by “and”; a condition that tells them apart may be missing. Equal values may be shown once.

Assay: Pharmacokinetics after single oral administration to beagle dogs
Format: in vivo
Conditions: for Cmax of the analog (Compound I-17/I-19) / T1/2 of the analog (Compound I-17/I-19) / Tmax of the analog (Compound I-17/I-19): oral 10 mg/kg; for plasma concentration of Compound I-17/I-19 (as titled): single PO 80 mg/kg (as titled)
Method: The concentrations of the analytes in the plasma were quantified by liquid chromatography tandem mass spectrometry (LC-MS/MS).
The bioanalytical assay provided a lower limit of quantification (LLOQ) of 1.0 ng/mL and an upper limit of quantification (ULOQ) of 3000 ng/mL for all the analytes. The data of plasma concentration vs. time were analyzed using Phoenix WinNonlin 8.3 to determine the PK properties of the analytes.
The test articles were administered orally by gavage. The nominal dose volume was 5 mL/kg for both analogs.
The observation included appearance, behavior, morbidity and mortality.
Approximately 0.5 mL blood was collected at each scheduled time point from the peripheral veins.
The plasma samples were placed in microcentrifuge tubes and stored at −70+10° C. until analysis.

[1] = after single PO 80 mg/kg (so in the source) of Compound I-17/I-19, male mean

For `Clc1ccc(C2(OCC3OCCO3)c3ccccc3C3=NCCN32)cc1` (centres unmarked) [Compound I-19], which “Tlast of Compound A” value [1] is on record?
The value was 24.0 h.

What about the “Tmax of Compound A” value [1] of the same molecule?
The value was 1.00 h.

What about the “Cmax and AUC0-last of Compound A, compared to Compound I-17” value (male and female dogs, PO) of the same molecule?
The value was “about 2.5 ×”.

What about the “Cmax of the analog (Compound I-17/I-19)” value (female dogs) of the same molecule?
The value was 260 ng/mL.

What about the “T1/2 of the analog (Compound I-17/I-19)” value (female dogs) of the same molecule?
Its value is 2.50 hours.

And the “Tmax of the analog (Compound I-17/I-19)” value (female dogs)?
The value was 1 hour.

And the “Cmax of the analog (Compound I-17/I-19)” value (male dogs)?
The value was 297 ng/mL.

What about the “T1/2 of the analog (Compound I-17/I-19)” value (male dogs) of the same molecule?
Its value is 1.66 hours.

What about the “Tmax of the analog (Compound I-17/I-19)” value (male dogs) of the same molecule?
Its value is 1 hour.

What about the “plasma concentration of Compound I-17/I-19” value (single PO 10 mg/kg, 0.500 h, female individual, 10 mg/kg) of the same molecule?
The value was 257 ng/mL and 246 ng/mL.

What about the “plasma concentration of Compound I-17/I-19” value (single PO 10 mg/kg, 0.500 h, female mean) of the same molecule?
Its value is 252 ng/mL.

And the “plasma concentration of Compound I-17/I-19” value (single PO 10 mg/kg, 0.500 h, male individual, 10 mg/kg)?
The value was 259 ng/mL and 195 ng/mL.

What about the “plasma concentration of Compound I-17/I-19” value (single PO 10 mg/kg, 0.500 h, male mean) of the same molecule?
The value was 227 ng/mL.

And the “plasma concentration of Compound I-17/I-19” value (single PO 10 mg/kg, 1.00 h, female individual, 10 mg/kg)?
Its value is 258 ng/mL and 262 ng/mL.

What about the “plasma concentration of Compound I-17/I-19” value (single PO 10 mg/kg, 1.00 h, female mean) of the same molecule?
Its value is 260 ng/mL.

And the “plasma concentration of Compound I-17/I-19” value (single PO 10 mg/kg, 1.00 h, male individual, 10 mg/kg)?
The value was 312 ng/mL and 281 ng/mL.

What about the “plasma concentration of Compound I-17/I-19” value (single PO 10 mg/kg, 1.00 h, male mean) of the same molecule?
Its value is 297 ng/mL.

What about the “plasma concentration of Compound I-17/I-19” value (single PO 10 mg/kg, 2.00 h, female individual, 10 mg/kg) of the same molecule?
The value was 186 ng/mL and 240 ng/mL.

What about the “plasma concentration of Compound I-17/I-19” value (single PO 10 mg/kg, 2.00 h, female mean) of the same molecule?
Its value is 213 ng/mL.

What about the “plasma concentration of Compound I-17/I-19” value (single PO 10 mg/kg, 2.00 h, male individual) of the same molecule?
The value was 181 ng/mL.

What about the “plasma concentration of Compound I-17/I-19” value (single PO 10 mg/kg, 2.00 h, male mean) of the same molecule?
The value was 181 ng/mL.

And the “plasma concentration of Compound I-17/I-19” value (single PO 10 mg/kg, 4.00 h, female individual, 10 mg/kg)?
The value was 50.7 ng/mL and 78.2 ng/mL.

What about the “plasma concentration of Compound I-17/I-19” value (single PO 10 mg/kg, 4.00 h, female mean) of the same molecule?
Its value is 64.4 ng/mL.

What about the “plasma concentration of Compound I-17/I-19” value (single PO 10 mg/kg, 4.00 h, male individual, 10 mg/kg) of the same molecule?
Its value is 64.2 ng/mL and 67.7 ng/mL.

And the “plasma concentration of Compound I-17/I-19” value (single PO 10 mg/kg, 4.00 h, male mean)?
The value was 66.0 ng/mL.

And the “plasma concentration of Compound I-17/I-19” value (single PO 10 mg/kg, 6.00 h, female individual, 10 mg/kg)?
Its value is 27.8 ng/mL and 50.5 ng/mL.

And the “plasma concentration of Compound I-17/I-19” value (single PO 10 mg/kg, 6.00 h, female mean)?
The value was 39.1 ng/mL.

What about the “plasma concentration of Compound I-17/I-19” value (single PO 10 mg/kg, 6.00 h, male individual, 10 mg/kg) of the same molecule?
Its value is 27.3 ng/mL and 22.7 ng/mL.

And the “plasma concentration of Compound I-17/I-19” value (single PO 10 mg/kg, 6.00 h, male mean)?
The value was 25.0 ng/mL.

And the “plasma concentration of Compound I-17/I-19” value (single PO 10 mg/kg, 8.00 h, female individual, 10 mg/kg)?
The value was 14.6 ng/mL and 28.7 ng/mL.

What about the “plasma concentration of Compound I-17/I-19” value (single PO 10 mg/kg, 8.00 h, female mean) of the same molecule?
Its value is 21.7 ng/mL.

What about the “plasma concentration of Compound I-17/I-19” value (single PO 10 mg/kg, 8.00 h, male individual, 10 mg/kg) of the same molecule?
The value was 15.2 ng/mL and 9.16 ng/mL.

And the “plasma concentration of Compound I-17/I-19” value (single PO 10 mg/kg, 8.00 h, male mean)?
The value was 12.2 ng/mL.

And the “plasma concentration of Compound I-17/I-19” value (single PO 10 mg/kg, 24.0 h, female individual)?
Its value is “BQL”.

And the “plasma concentration of Compound I-17/I-19” value (single PO 10 mg/kg, 24.0 h, male individual)?
Its value is “BQL”.

What about the Clinical observation (single PO 10 mg/kg, beagle dogs) of the same molecule?
Its Clinical observation is “diarrhea at 24 hours post-dose”.

And the “plasma concentration of Compound I-17/I-19 (as titled)” value (“plasma concentration … (as titled)” for short) (0.500 h, female individual, 80 mg/kg)?
The value was 160 ng/mL and 83.0 ng/mL.

What about the “plasma concentration … (as titled)” value (0.500 h, female mean) of the same molecule?
Its value is 121 ng/mL.

What about the “plasma concentration … (as titled)” value (0.500 h, male individual, 80 mg/kg) of the same molecule?
The value was 102 ng/mL and 91.6 ng/mL.

And the “plasma concentration … (as titled)” value (0.500 h, male mean)?
Its value is 96.8 ng/mL.

And the “plasma concentration … (as titled)” value (2.00 h, female individual)?
Its value is 113 ng/mL.

And the “plasma concentration … (as titled)” value (2.00 h, female mean)?
Its value is 113 ng/mL.

What about the “plasma concentration … (as titled)” value (2.00 h, male individual, 80 mg/kg) of the same molecule?
Its value is 94.9 ng/mL and 78.9 ng/mL.

And the “plasma concentration … (as titled)” value (2.00 h, male mean)?
Its value is 86.9 ng/mL.

What about the “plasma concentration … (as titled)” value (4.00 h, female individual, 80 mg/kg) of the same molecule?
The value was 87.3 ng/mL and 76.1 ng/mL.

What about the “plasma concentration … (as titled)” value (4.00 h, female mean) of the same molecule?
Its value is 81.7 ng/mL.

What about the “plasma concentration … (as titled)” value (4.00 h, male individual, 80 mg/kg) of the same molecule?
The value was 87.4 ng/mL and 60.3 ng/mL.

What about the “plasma concentration … (as titled)” value (4.00 h, male mean) of the same molecule?
Its value is 73.8 ng/mL.

And the “plasma concentration … (as titled)” value (6.00 h, female individual, 80 mg/kg)?
Its value is 49.1 ng/mL and 57.9 ng/mL.

What about the “plasma concentration … (as titled)” value (6.00 h, female mean) of the same molecule?
Its value is 53.5 ng/mL.

And the “plasma concentration … (as titled)” value (6.00 h, male individual, 80 mg/kg)?
The value was 60.4 ng/mL and 35.4 ng/mL.

And the “plasma concentration … (as titled)” value (6.00 h, male mean)?
Its value is 47.9 ng/mL.

What about the “plasma concentration … (as titled)” value (8.00 h, female individual, 80 mg/kg) of the same molecule?
Its value is 32.5 ng/mL and 52.0 ng/mL.

And the “plasma concentration … (as titled)” value (8.00 h, female mean)?
The value was 42.3 ng/mL.

And the “plasma concentration … (as titled)” value (8.00 h, male individual, 80 mg/kg)?
The value was 43.8 ng/mL and 20.9 ng/mL.

What about the “plasma concentration … (as titled)” value (8.00 h, male mean) of the same molecule?
Its value is 32.4 ng/mL.

What about the “plasma concentration … (as titled)” value (24.0 h, female individual, 80 mg/kg) of the same molecule?
The value was 6.70 ng/mL and 18.2 ng/mL.

What about the “plasma concentration … (as titled)” value (24.0 h, female mean) of the same molecule?
The value was 12.4 ng/mL.

And the “plasma concentration … (as titled)” value (24.0 h, male individual, 80 mg/kg)?
The value was 7.39 ng/mL and 4.28 ng/mL.

And the “plasma concentration … (as titled)” value (24.0 h, male mean)?
The value was 5.83 ng/mL.

And the “plasma concentration … (as titled)” value ([…] h, female mean)?
The value was 116 ng/mL.

What about the “plasma concentration … (as titled)” value ([…] h, male mean) of the same molecule?
The value was 123 ng/mL.
